Measurements as given in patent US9815796B2 (Merck Sharp & Dohme Corp., priority 2013, dated 2017).
Read-outs that look alike come from different tables or passages of the source.

Legend:
[1] = molecular target: Rhesus PDE2A3 (Macaca mulatta, UniProt B3VTJ2); assay: PDE2 fluorescence polarization (IMAP FP) inhibition assay, rhesus enzyme; assay type: biochemical, rhesus macaque
In short: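 Rhesus PDE2A3 came from lysate of transiently transfected AD293 cells, diluted to give 20% substrate conversion. Substrate was 50 nM FAM-cAMP with 1 uM cGMP activator in Tris pH 7.2/MgCl2 buffer, run 60 min at room temperature over 10-point 3-fold dilutions in 1% DMSO. Read-out was IMAP fluorescence polarization (mP) after ≥1 h binding.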

[2] = molecular target: human PDE2A1 (Homo sapiens (Human), UniProt O00408); assay: IMAP FP PDE selectivity panel, human PDE2A1; assay type: biochemical
Chain of human PDE2A1 (O00408 other isoform, or with tags, fused parts or gaps): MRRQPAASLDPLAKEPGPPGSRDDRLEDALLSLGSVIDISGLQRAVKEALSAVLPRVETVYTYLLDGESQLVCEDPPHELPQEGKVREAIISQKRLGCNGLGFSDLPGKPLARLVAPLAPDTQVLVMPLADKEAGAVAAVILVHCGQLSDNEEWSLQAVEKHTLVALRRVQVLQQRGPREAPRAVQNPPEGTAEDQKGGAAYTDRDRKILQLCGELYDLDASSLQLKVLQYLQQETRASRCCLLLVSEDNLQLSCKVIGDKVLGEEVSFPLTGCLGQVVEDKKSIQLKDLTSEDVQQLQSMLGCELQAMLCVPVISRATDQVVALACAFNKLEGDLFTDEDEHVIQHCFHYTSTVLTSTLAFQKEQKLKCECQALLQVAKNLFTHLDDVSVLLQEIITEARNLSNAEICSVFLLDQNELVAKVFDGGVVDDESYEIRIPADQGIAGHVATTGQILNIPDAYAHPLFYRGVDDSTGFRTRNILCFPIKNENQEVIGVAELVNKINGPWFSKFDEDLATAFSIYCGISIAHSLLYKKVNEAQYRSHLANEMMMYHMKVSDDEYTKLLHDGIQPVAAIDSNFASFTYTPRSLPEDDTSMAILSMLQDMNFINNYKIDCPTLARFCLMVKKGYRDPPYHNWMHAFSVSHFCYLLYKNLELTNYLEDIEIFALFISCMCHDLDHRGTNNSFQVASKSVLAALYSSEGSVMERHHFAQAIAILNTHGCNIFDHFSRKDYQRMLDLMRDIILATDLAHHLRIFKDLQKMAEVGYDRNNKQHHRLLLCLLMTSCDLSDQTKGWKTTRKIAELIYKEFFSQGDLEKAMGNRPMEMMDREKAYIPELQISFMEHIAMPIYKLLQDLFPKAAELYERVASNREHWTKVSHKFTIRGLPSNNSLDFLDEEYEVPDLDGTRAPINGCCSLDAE
In short: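 GST-tagged human PDE2A1 expressed in insect cells, run at room temperature for 60 min with 50 nM FAM-cAMP containing 1000 nM cGMP, pH 7.2 Tris/MgCl2 buffer. IMAP fluorescence polarization read after binding step.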

[3] = Rhesus PDE2, Lab A, read-out: Rhesus PDE2 Ki (nM) - Lab A
[4] = Human PDE2, Lab B, read-out: Human PDE2 Ki (nM) - Lab B
[5] = Rhesus PDE2, Lab B, read-out: Rhesus PDE2 Ki (nM) - Lab B
[6] = Human PDE2, Lab A, read-out: Human PDE2 Ki (nM) - Lab A

Chain of Rhesus PDE2A3 (B3VTJ2 1-941): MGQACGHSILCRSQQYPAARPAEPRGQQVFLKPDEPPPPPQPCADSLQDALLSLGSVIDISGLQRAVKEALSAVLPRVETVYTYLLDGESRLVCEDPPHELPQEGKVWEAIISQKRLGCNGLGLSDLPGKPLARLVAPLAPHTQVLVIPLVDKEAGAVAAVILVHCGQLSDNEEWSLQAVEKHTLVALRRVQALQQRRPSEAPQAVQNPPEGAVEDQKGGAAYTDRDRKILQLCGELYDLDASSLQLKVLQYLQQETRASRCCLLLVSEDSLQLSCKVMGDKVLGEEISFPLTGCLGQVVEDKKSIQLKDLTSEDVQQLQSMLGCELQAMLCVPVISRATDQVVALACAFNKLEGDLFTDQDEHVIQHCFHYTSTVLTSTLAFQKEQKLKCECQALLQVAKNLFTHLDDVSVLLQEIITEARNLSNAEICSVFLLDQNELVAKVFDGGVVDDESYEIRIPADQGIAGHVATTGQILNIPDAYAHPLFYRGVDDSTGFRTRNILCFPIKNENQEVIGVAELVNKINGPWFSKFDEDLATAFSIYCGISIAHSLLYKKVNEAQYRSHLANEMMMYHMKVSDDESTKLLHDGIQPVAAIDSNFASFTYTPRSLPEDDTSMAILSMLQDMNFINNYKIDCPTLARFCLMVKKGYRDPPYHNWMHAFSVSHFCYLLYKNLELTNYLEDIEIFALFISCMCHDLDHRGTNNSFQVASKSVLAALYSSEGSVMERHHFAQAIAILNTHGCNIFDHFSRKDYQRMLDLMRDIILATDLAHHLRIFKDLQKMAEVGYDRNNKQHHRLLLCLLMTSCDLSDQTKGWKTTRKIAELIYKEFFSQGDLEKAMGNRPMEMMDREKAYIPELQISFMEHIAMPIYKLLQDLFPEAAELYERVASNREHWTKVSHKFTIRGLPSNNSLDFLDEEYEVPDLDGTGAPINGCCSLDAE

| Compound | Ki [1, 3] | Ki [2, 4] | Ki [1, 5] | Ki [2, 6] |
| --- | --- | --- | --- | --- |
| O=C(NCc1ccc(S(F)(F)(F)(F)F)cc1)c1cc(=O)[nH]c(-c2ccccc2)n1 [Example 377, 6-oxo-N-[4-(pentafluoro-λ^6-sulfanyl)benzyl]-2-phenyl-1,6-dihydropyrimidine-4-carboxamide] | 28 nM | 58 nM |  |  |
| CC(C)(C)[C@@H](NC(=O)c1cc(=O)[nH]c(C2CC2)n1)c1ccc(SC(F)(F)F)cc1 [Example 439, 2-cyclopropyl-N-[(1R)-2,2-dimethyl-1-{4-[(trifluoromethyl)sulfanyl]phenyl}pro-pyl]-6-oxo-1,6-dihydropyrimidine-4-carboxamide] |  | 1.3 nM | 1 nM |  |
| Cc1nc(C(=O)N[C@@H](c2ccc(C3CC3)c(F)c2)C(C)C)cc(=O)[nH]1 [Example 621, N-[(1R)-1-(4-cyclopropyl-3-fluorophenyl)-2-methylpropyl]-2-methyl-6-oxo-1,6-dihydropyrimidine-4-carboxamide] |  | 5.2 nM | 5.1 nM |  |
| C[C@@H](NC(=O)c1cc(=O)[nH]c(C2CC2)n1)c1ccc(S(F)(F)(F)(F)F)cc1 [Example 227, 2-cyclopropyl-6-oxo-N-{(1R)-1-[4-(pentafluoro-λ^6-sulfanyl)phenyl]ethyl}-1,6-dihydropyrimidine-4-carboxamide] | 12 nM |  |  | 6.5 nM |
| C[C@@H](NC(=O)c1cc(=O)[nH]c(-c2ccccc2)n1)c1ccc(-c2ccccc2)cc1 [Example 279, N-[(1R)-1-biphenyl-4-ylethyl]-6-oxo-2-phenyl-1,6-dihydropyrimidine-4-carboxamide] | 24 nM |  |  | 16 nM |
| O=C(NC1(c2ccc(C(F)(F)F)cc2)COC1)c1cc(=O)[nH]c(-c2ccccc2)n1 [Example 402, 6-oxo-2-phenyl-N-{3-[4-(trifluoromethyl)phenyl]oxetan-3-yl}-1,6-dihydropyrimidine-4-carboxamide] |  | 29 nM | 38 nM |  |
| COCc1nc(C(=O)N[C@@H](c2ccc(C(F)(F)F)c(F)c2)C2CC2)cc(=O)[nH]1 [Example 115, N-{(R)-cyclopropyl[3-fluoro-4-(trifluoromethyl)phenyl]methyl}-2-(methoxymethyl)-6-oxo-1,6-dihydropyrimidine-4-carboxamide] | 73 nM |  |  | 15 nM |
| CC(C)(C)[C@@H](NC(=O)c1cc(=O)[nH]c(C2CC2)n1)c1ccc(C(F)(F)F)cc1 [Example 262, 2-cyclopropyl-N-{(1R)-2,2-dimethyl-1-[4-(trifluoromethyl)phenyl]propyl}-6-oxo-1,6-dihydropyrimidine-4-carboxamide] | 0.65 nM | 0.79 nM | 0.85 nM |  |
| COc1cc(C(F)(F)F)ccc1[C@@H](C)NC(=O)c1cc(=O)[nH]c(C2CC2)n1 [Example 219, 2-cyclopropyl-N-{(1R)-1-[2-methoxy-4-(trifluoromethyl)phenyl]ethyl}-6-oxo-1,6-dihydropyrimidine-4-carboxamide] | 43 nM |  |  | 31 nM |
| O=C(NC1(c2ccc(C(F)(F)F)c(F)c2)CC1)c1cc(=O)[nH]c(-c2ncccn2)n1 [Example 76, N-{1-[3-fluoro-4-(trifluoromethyl)phenyl]cyclopropyl}-6-oxo-1,6-dihydro-2,2′-bipyrimidine-4-carboxamide] | 17 nM | 21 nM | 18 nM |  |
| CC(C)(NC(=O)c1cc(=O)[nH]c(C2CC2)n1)c1ccc(C(F)(F)F)c(F)c1 [Example 200, 2-cyclopropyl-N-{1-[3-fluoro-4-(trifluoromethyl)phenyl]-1-methylethyl}-6-oxo-1,6-dihydropyrimidine-4-carboxamide] | 16 nM |  |  | 9.2 nM |
| Cc1nc(C(=O)NC2(c3ccc(C(F)(F)F)cc3)CC2)cc(=O)[nH]1 [Example 1, 2-Methyl-6-oxo-N-{1-[4-(trifluoromethyl)phenyl]cyclopropyl}-1,6-dihydropyrimidine-4-carboxamide] | 21 nM | 36 nM | 28 nM | 16 nM |
| Cc1nc(C(=O)NC(C)c2ccc(C3CC3)cc2)cc(=O)[nH]1 (stereo not drawn) [Example 42, N-[1-(4-cyclopropylphenyl)ethyl]-2-methyl-6-oxo-1,6-dihydropyrimidine-4-carboxamide] | 72 nM |  |  | 31 nM |
| Cc1nc(C(=O)NC(C(=O)O)c2ccc(C(F)(F)F)cc2)cc(=O)[nH]1 (single isomer, unassigned) [Example 327] | 4550 nM |  |  | 8100 nM |
| C[C@@H](NC(=O)c1cc(=O)[nH]c(-c2ccccc2)n1)c1ccc(C(F)(F)F)c(F)c1F [Example 408, N-{(1R)-1-[2,3-difluoro-4-(trifluoromethyl)phenyl]ethyl}-6-oxo-2-phenyl-1,6-dihydropyrimidine-4-carboxamide] |  | 11 nM | 17 nM |  |
| CC[C@@H](NC(=O)c1cc(=O)[nH]c(-c2ncccn2)n1)c1ccc(SC(F)(F)F)c(F)c1 [Example 263, N-[(1R)-1-{3-fluoro-4-[(trifluoromethyl)sulfanyl]phenyl}propyl]-6-oxo-1,6-dihydro-2,2′-bipyrimidine-4-carboxamide] | 1.5 nM | 2.1 nM | 1.9 nM |  |

Other lines, results leading:

| Ki [1, 3] | Ki [2, 4] | Ki [1, 5] | Ki [2, 6] | Compound |
| --- | --- | --- | --- | --- |
|  | 27 nM | 27 nM |  | COc1ccc(C(C)(C)c2nc(C(=O)N[C@@H](c3ccc(SC(F)(F)F)c(F)c3)C(C)C)cc(=O)[nH]2)cc1 [Example 491, N-[(1R)-1-{3-fluoro-4-[(trifluoromethyl)sulfanoyl]phenyl}-2-methylpropyl]-2-[1-(4-methoxyphenyl)-1-methylethyl]-6-oxo-1,6-dihydropyrimidine-4-carboxamide] |
|  | 1.5 nM | 1.9 nM |  | CC[C@@H](NC(=O)c1cc(=O)[nH]c(Cc2ccc(OC)cc2)n1)c1ccc(OC(F)(F)F)cc1 [Example 485, 2-(4-methoxybenzyl)-6-oxo-N-{(1R)-1-[4-(trifluoromethoxy)phenyl]propyl}-1,6-dihydropyrimidine-4-carboxamide] |
|  | 2.1 nM | 2.8 nM |  | COc1ccc(Cc2nc(C(=O)N[C@@H](c3ccc(SC(F)(F)F)cc3)C3CC3)cc(=O)[nH]2)cc1F [Example 523, N-[(R)-cyclopropyl{4-[(trifluoromethyl)sulfanyl]phenyl}methyl]-2-(3-fluoro-4-methoxybenzyl)-6-oxo-1,6-dihydropyrimidine-4-carboxamide] |
| 9.9 nM |  |  | 6 nM | C[C@@H](NC(=O)c1cc(=O)[nH]c(C2CC2)n1)c1ccc(OC(F)(F)F)cc1 [Example 10, 2-cyclopropyl-6-oxo-N-{(1R)-1-[4-(trifluoromethoxy)phenyl]ethyl}-1,6-dihydropyrimidine-4-carboxamide] |
| 127 nM |  |  | 77 nM | CC(C)(NC(=O)c1cc(=O)[nH]c(C2CC2)n1)c1ccc(OC(F)(F)F)cc1 [Example 295, 2-cyclopropyl-N-{1-methyl-1-[4-(trifluoromethoxy)phenyl]ethyl}-6-oxo-1,6-dihydropyrimidine-4-carboxamide] |
| 9.7 nM |  |  | 5.5 nM | CC[C@@H](NC(=O)c1cc(=O)[nH]c(C)n1)c1ccc(SC(F)(F)F)c(F)c1 [Example 54, N-[(1R)-1-{3-fluoro-4-[(trifluoromethyl)sulfanyl]phenyl}propyl]-2-methyl-6-oxo-1,6-dihydropyrimidine-4-carboxamide] |
| 8.3 nM |  |  | 4.6 nM | CC[C@@H](NC(=O)c1cc(=O)[nH]c(C2CC2)n1)c1ccc(OC(F)(F)F)cc1 [Example 225, 2-cyclopropyl-6-oxo-N-{(1R)-1-[4-(trifluoromethoxy)phenyl]propyl}-1,6-dihydropyrimidine-4-carboxamide] |
| 8.7 nM |  |  | 6 nM | C[C@@H](NC(=O)c1cc(=O)[nH]c(-c2ncccn2)n1)c1ccc(OC(F)(F)F)cc1 [Example 283, 6-oxo-N-{(1R)-1-[4-(trifluoromethoxy)phenyl]ethyl}-1,6-dihydro-2,2′-bipyrimidine-4-carboxamide] |
| 176 nM |  |  | 45 nM | COCc1nc(C(=O)N[C@H](C)c2ccc(C(F)(F)F)c(F)c2)cc(=O)[nH]1 [Example 125, N-{(1R)-1-[3-fluoro-4-(trifluoromethyl)phenyl]ethyl}-2-(methoxymethyl)-6-oxo-1,6-dihydropyrimidine-4-carboxamide] |
|  | 2 nM | 1.7 nM |  | CC[C@@H](NC(=O)c1cc(=O)[nH]c(Cc2ccc(OC)c(F)c2)n1)c1ccc(SC(F)(F)F)c(F)c1 [Example 519, 2-(3-fluoro-4-methoxybenzyl)-N-[(1R)-1-{3-fluoro-4-[(trifluoromethyl)sulfanyl]phenyl}propyl]-6-oxo-1,6-dihydropyrimidine-4-carboxamide] |
|  | 0.99 nM | 0.88 nM |  | COc1ccc(Cc2nc(C(=O)N[C@@H](c3ccc(OC(F)(F)F)cc3)C(C)(C)C)cc(=O)[nH]2)cc1F [Example 509, N-{(1R)-2,2-dimethyl-1-[4-(trifluoromethoxy)phenyl]propyl}-2-(3-fluoro-4-methoxybenzyl)-6-oxo-1,6-dihydropyrimidine-4-carboxamide] |
|  | 2.8 nM | 3.3 nM |  | COc1ccc(Cc2nc(C(=O)N[C@@H](c3ccc(S(F)(F)(F)(F)F)cc3)C3CC3)cc(=O)[nH]2)cc1F [Example 510, N-{(R)-cyclopropyl[4-(pentafluoro-λ^6-sulfanyl)phenyl]methyl}-2-(3-fluoro-4-methoxybenzyl)-6-oxo-1,6-dihydropyrimidine-4-carboxamide] |
| 151 nM |  |  | 81 nM | COc1ccc2cc(C(C)NC(=O)c3cc(=O)[nH]c(C4CC4)n3)ccc2c1 (stereo not drawn) [Example 192, 2-cyclopropyl-N-[1-(6-methoxynaphthalen-2-yl)ethyl]-6-oxo-1,6-dihydropyrimidine-4-carboxamide] |
